Source: patent US6407129B1, “Azole compounds, their production and their use” (Takeda Chemical Industries, Ltd., priority 1997, dated 2002)

Columns and labels:
Type in all cases: in vivo
[1] = tested on: Candida albicans T.A.; assay: Protective effect at a single dose of 1.04 μmol/kg against experimental Candida albicans TA infection in mice (Experiment 3); settings: n = 5 mice; for Mean survival day of the mice which died, i.v. / No. of survivors, i.v.: 1.04 μmol/kg i.v.; for Mean survival day of the mice which died, i.v. / Mean survival day of the mice which died, p.o.: mice which had died up to 7 days after infection; for No. of survivors, i.v. / No. of survivors, p.o.: survivors on day 7 after infection; for Mean survival day of the mice which died, p.o. / No. of survivors, p.o.: 1.04 μmol/kg p.o.
Procedure: Method: Five-week-old Crj:CDF1 female mice were infected intravenously with minimum lethal dose of Candida albicans T.A. The test compounds were dissolved in 5% glucose solution and were administered intravenously (i.v.) or orally (p.o.) to the mice at a dose of 1.04 μmol/kg immediately after infection. Protective effect of each compound were expressed as the number of survivors on day 7 after infection and the mean survival days of the mice which had died up to 7 days after infection.
The protective effect of the reference compound shown in figure (V) is included in Table 7. The reference compound was suspended in 0.5% sodium carboxymethyl cellulose and was administered orally to the mice at a dose of 1.04 μmol/kg immediately after infection.

[2] = tested on: Candida albicans TA; assay: Protective effect against experimental Candida albicans TA infection in mice, oral administration (Experiment 2); settings: Crj:CDF1 female mice, i.v. infection, compound in 5% glucose given orally immediately after infection; Reed and Muench from survival rates on day 7
Procedure: (§1) Method: Five-week-old Crj:CDF1 female mice were infected intravenously with minimum lethal dose of Candida albicans TA. The test compounds were dissolved in 5% glucose solution and were administered orally to the mice immediately after infection. Protective effects of the compounds were expressed as 50% effective dose (ED50) calculated using the method of Reed and Muench from survival rates on day 7 after infection.

[3] = tested on: Candida albicans TA; assay: Protective effect against experimental Candida albicans TA infection in mice, intravenous administration (Experiment 1); settings: Crj:CDF1 female mice, compound in 5% glucose given intravenously immediately after infection, Reed and Muench from survival rates on day 7
Procedure: as §1, with “intravenously” for “orally”

Row | Molecule | Mean survival day of the mice which died, i.v. [1] | No. of survivors, i.v. [1] | Mean survival day of the mice which died, p.o. [1] | No. of survivors, p.o. [1] | ED50 p.o. [2] | ED50 i.v. [3]
1 | CCC(=O)OC[n+]1cnn(C[C@](O)(c2ccc(F)cc2F)[C@@H](C)N2CCN(c3ccc(-n4cnnn4)cc3)C2=O)c1.[Cl-] [Compound 14, 1-[(2R,3R)-2-(2,4-difluorophenyl)-2-hydroxy-3-[2-oxo-3-[4-(1H-tetrazol-1-yl)phenyl]-1-imidazolidinyl]butyl]-4-propanoyloxymethyl-1H-1,2,4-triazolium chloride] | 4.5 days | 1 | 6.0 days | 3 |  | 
2 | CC(N1CCN(c2ccc(-n3cnnn3)cc2)C1=O)C(O)(Cn1cncn1)c1ccc(F)cc1F (stereo not shown) [Reference compound (V), reference compound] |  |  | 4.3 days | 2 |  | 
3 | CCOC(=O)OC[n+]1cnn(C[C@](O)(c2ccc(F)cc2F)[C@@H](C)N2CCN(c3ccc(-n4cnnn4)cc3)C2=O)c1.[Cl-] [Compound 16, 1-[(2R,3R)-2-(2,4-difluorophenyl)-2-hydroxy-3-[2-oxo-3-[4-(1H-tetrazol-1-yl)phenyl]-1-imidazolidinyl]butyl]-4-ethoxycarbonyloxymethyl-1H-1,2,4-triazolium chloride] | 6.0 days | 4 |  | 5 |  | 
4 | C[C@@H](N1CCN(c2ccc(-n3cnnn3)cc2)C1=O)[C@](O)(C[n+]1cn(COC(=O)C(C)(C)C)cn1)c1ccc(F)cc1F.[Cl-] [Compound 2, 1-[(2R,3R)-2-(2,4-difluorophenyl)-2-hydroxy-3-[2-oxo-3-[4-(1H-tetrazol-1-yl)phenyl]-1-imidazolidinyl]butyl]-4-[(2,2-dimethylpropanoyloxy)methyl]-1,2,4-triazolium chloride] |  |  |  |  | 1.8 µmol/kg | 1.5 µmol/kg
5 | 1-[(2R,3R)-2-(2,4-difluorophenyl)-2-hydroxy-3-[2-oxo-3-[4-(1H-tetrazol-1-yl)phenyl]-1-imidazolidinyl]butyl]-4-(isopropoxycarbonyloxy)methyl-1H-1,2,4-triazolium chloride [Compound 18] | 5.5 days | 3 | 4.5 days | 3 |  | 
6 | CC(=O)OC[n+]1cnn(C[C@](O)(c2ccc(F)cc2F)[C@@H](C)N2CCN(c3ccc(-n4cnnn4)cc3)C2=O)c1.[Cl-] [Compound 12, 4-acetoxymethyl-1-[(2R,3R)-2-(2,4-difluorophenyl)-2-hydroxy-3-[2-oxo-3-[4-(1H-tetrazol-1-yl)phenyl]-1-imidazolidinyl]butyl]-1H-1,2,4-triazolium chloride] | 4.5 days | 3 | 5.0 days | 4 |  | 
7 | 1-[(2R,3R)-2-(2,4-difluorophenyl)-2-hydroxy-3-[2-oxo-3-[4-(1H-1,2,3-triazol-1-yl)phenyl]-1-imidazolidinyl]butyl]-4-[(2,2-dimethylpropanoyloxy)methyl]-1H-1,2,4-triazolium chloride [Compound 1] |  |  |  |  | 2.9 µmol/kg | 2.3 µmol/kg
8 | CC(=O)OC[n+]1cnn(C[C@](O)(c2ccc(F)cc2F)[C@@H](C)N2CCN(c3ccc(-n4cnnn4)cc3)C2=O)c1.[Br-] [Compound 11, 4-acetoxymethyl-1-[(2R,3R)-2-(2,4-difluorophenyl)-2-hydroxy-3-[2-oxo-3-[4-(1H-tetrazol-1-yl)phenyl]-1-imidazolidinyl]butyl]-1H-1,2,4-triazolium bromide] | 4.0 days | 2 | 6.0 days | 3 |  | 
